In patent US20260078103A1, “ISOQUINOLONES AS PI3K INHIBITORS” (OnKure, Inc., priority 2022, published 2026):
Where two headings read alike, the source gives them in different places.

Columns and labels:
Type in all cases: cell-based
[1] = tested on: phosphorylation of AKT (pAKT) in SKBR3 cells express WT PI3Ka; assay: In vitro cell pAKT (Ser473) HTRF, SKBR3 cells; conditions: cellular pAKT
Method in brief: (§1)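 T47D cells (RPMI, 10% FBS, 0.2 units/mL insulin) or SKBR3 cells (McCoy's 5a, 10% FBS) were seeded onto 10-point compound dilutions and incubated 6 h at 37 °C. After lysis, pAKT was detected overnight by HTRF (Eu cryptate/d2). IC50 was fitted from % inhibition relative to 0.1% DMSO and 10 uM alpelisib controls.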

[2] = tested on: T47D cells expressing mutant PI3Ka (H1047R); assay: In vitro cell proliferation, T47D cells (CellTiter-Glo); conditions: inhibition of proliferation, read-out: Avg T-47D EC50
Method in brief: (§2)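 T47D cells in RPMI/10% FBS/insulin (0.2 units/mL) or SKBR3 in McCoys 5a/10% FBS, 1,500 cells/well, grown 72 h at 37 °C with 10-point compound dilutions. CellTiter-Glo luminescence; % inhibition normalised to 0.1% DMSO and 10 uM Alpelisib, EC50 from four-parameter curve fit.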

[3] = tested on: phosphorylation of AKT (pAKT) in T47D cells expressing mutant PI3Ka (H1047R); assay: In vitro cell pAKT (Ser473) HTRF, T47D cells; conditions: cellular pAKT, T47D cells, mutant PI3Ka (H1047R), 6 hours, read-out: Avg T-47D IC50
Method in brief: as §1

[4] = tested on: SKBR3 cells express WT PI3Ka; assay: In vitro cell proliferation, SKBR3 cells (CellTiter-Glo); conditions: inhibition of proliferation
Method in brief: as §2

IC50 ([1]; Homo sapiens, SK-BR-3, 6 h) [nM]	EC50 ([2]; Homo sapiens, T47D, 72 h) [nM]	IC50 ([3]; Homo sapiens, T47D, 6 h) [nM]	EC50 ([4]; Homo sapiens, SK-BR-3, 72 h) [nM]	IC50 ([1]; 6 hours) [nM]	EC50 ([2]; 72 hours) [nM]	IC50 [3] [nM]	EC50 ([4]; 72 hours) [nM]	Compound
2000 to 15000	1 to 500	1 to 500	> 15000	–	–	–	–	Cc1ncc(N2CCN(c3cc4c([C@@H](C)Nc5cccc(F)c5C(=O)O)cc(F)cc4c(=O)n3C)CC2)s1 [Example 477]
2000 to 15000	1 to 500	1 to 500	> 15000	–	–	–	–	Cc1ncc(N2CCN(c3cc4c([C@@H](C)Nc5ccccc5C(=O)O)cc(F)cc4c(=O)n3C)CC2)s1 [Example 478]
> 15000	500 to 2000	1 to 500	> 15000	–	–	–	–	C[C@@H](Nc1ccccc1C(=O)O)c1cc(F)cc2c(=O)n(C)c(-c3cc(F)c4nn(C)cc4c3)cc12 [Example 483]
> 15000	500 to 2000	500 to 2000	> 15000	–	–	–	–	C[C@@H](Nc1cccc(F)c1C(=O)O)c1cc(F)cc2c(=O)n(C)c(-c3cc(F)c4nn(C)cc4c3)cc12 [Example 484]
> 15000	2000 to 15000	500 to 2000	2000 to 15000	–	–	–	–	Cc1cc([C@@H](C)Nc2nccnc2C(=O)O)c2cc(N3CCN(CC(F)(F)F)CC3)n(C)c(=O)c2c1 [Example 485]
2000 to 15000	1 to 500	1 to 500	2000 to 15000	–	–	–	–	Cc1nc(N2CCN(c3cc4c([C@@H](C)Nc5cccc(F)c5C(=O)O)cc(F)cc4c(=O)n3C)CC2)cs1 [Example 490]
2000 to 15000	1 to 500	1 to 500	2000 to 15000	–	–	–	–	Cc1nc(N2CCN(c3cc4c([C@@H](C)Nc5ccccc5C(=O)O)cc(F)cc4c(=O)n3C)CC2)cs1 [Example 491]
2000 to 15000	1 to 500	1 to 500	2000 to 15000	–	–	–	–	Cc1cnc(N2CCN(c3cc4c([C@@H](C)Nc5ccccc5C(=O)O)cc(F)cc4c(=O)n3C)CC2)c(C)n1 [Example 492]
500 to 2000	1 to 500	1 to 500	2000 to 15000	–	–	–	–	Cc1ncc(N2CCN(c3cc4c([C@@H](C)Nc5ccccc5C(=O)O)cc(F)cc4c(=O)n3C)CC2)c(C)n1 [Example 495]
> 15000	500 to 2000	1 to 500	> 15000	–	–	–	–	C[C@@H](Nc1ccccc1C(=O)O)c1cc(F)cc2c(=O)n(C)c(-c3cc(F)c4nn(C(F)F)cc4c3)cc12 [Example 496]
> 15000	1 to 500	1 to 500	> 15000	–	–	–	–	C[C@@H](Nc1ccccc1C(=O)O)c1cc(F)cc2c(=O)n(C)c(-c3ccc(OC4CC4)nc3)cc12 [Example 497]
> 15000	500 to 2000	500 to 2000	> 15000	–	–	–	–	CC(=O)N1CCN(c2cc3c([C@@H](C)Nc4ccccc4C(=O)O)cc(C)cc3c(=O)n2C)CC1 [Example 498]
> 15000	500 to 2000	500 to 2000	> 15000	–	–	–	–	Cc1cc([C@@H](C)Nc2ccccc2C(=O)O)c2cc(N3CCN(C=O)CC3)n(C)c(=O)c2c1 [Example 499]
> 15000	1 to 500	1 to 500	> 15000	–	–	–	–	Cc1ncc(-c2cc3c([C@@H](C)Nc4ccccc4C(=O)O)cc(F)cc3c(=O)n2C)s1 [Example 501]
500 to 2000	1 to 500	1 to 500	2000 to 15000	–	–	–	–	Cc1ccc(N2CCN(c3cc4c([C@@H](C)Nc5ccccc5C(=O)O)cc(F)cc4c(=O)n3C)CC2(C)C)cn1 [Example 502]
> 15000	500 to 2000	500 to 2000	> 15000	–	–	–	–	Cc1cc([C@@H](C)Nc2ncccc2C(=O)O)c2cc(N3CCN(CC(F)(F)F)CC3)n(C)c(=O)c2c1 [Example 503]
> 15000	1 to 500	1 to 500	> 15000	–	–	–	–	Cc1cnc(-c2cc3c([C@@H](C)Nc4ccccc4C(=O)O)cc(F)cc3c(=O)n2C)s1 [Example 504]
–	–	–	–	> 15000	1 to 500	1 to 500	> 15000	C[C@@H](Nc1ccccc1C(=O)O)c1cc(F)cc2c(=O)n(C)c(-c3cnc(-c4ncc(Cl)cc4F)c(F)c3)cc12 [Example 505]
–	–	–	–	> 15000	500 to 2000	1 to 500	> 15000	C[C@@H](Nc1ccccc1C(=O)O)c1cc(F)cc2c(=O)n(C)c(-c3ccc(OC4COC4)nc3)cc12 [Example 507]
> 15000	500 to 2000	500 to 2000	> 15000	–	–	–	–	C[C@@H](Nc1ccccc1C(=O)O)c1cc(F)cc2c(=O)n(C)c(-c3cnc(C(F)(F)F)s3)cc12 [Example 508]
